In PubChem BioAssay (NCI):
Values joined by “and” are separate entries in the source; they are usually repeats but may differ in a detail not shown here. Identical values can stand only once.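 Five compound concentrations were applied to cells in 96-well plates for 48 hours; endpoints were derived by simple linear interpolation of the resulting dose-response curve. GI50: concentration for 50% inhibition of growth. The concentration for full growth arrest is given as TGI.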

Columns and labels:
Assay in all cases: NCI-60 cell line screen, 48 h; in the data active = GI50 below about 0.43 µM; inactive = the rest
SNB-19 CNS = test system: SNB-19 CNS
HOP-92 NSCLC = test system: HOP-92 NSCLC
TK-10 renal = test system: TK-10 renal
SF-295 CNS = test system: SF-295 CNS
CCRF-CEM leukemia = test system: CCRF-CEM leukemia
UO-31 renal = test system: UO-31 renal
NCI-H522 lung = test system: NCI-H522 lung
UACC-257 melanoma = test system: UACC-257 melanoma
SR leukemia = test system: SR leukemia
SK-OV-3 ovarian = test system: SK-OV-3 ovarian
HOP-18 NSCLC = test system: HOP-18 NSCLC
NCI-H460 lung = test system: NCI-H460 lung
SW-620 colon = test system: SW-620 colon
LXFL 529 NSCLC = test system: LXFL 529 NSCLC
M19-MEL melanoma = test system: M19-MEL melanoma
DLD-1 colon = test system: DLD-1 colon
K-562 leukemia = test system: K-562 leukemia
OVCAR-3 ovarian = test system: OVCAR-3 ovarian
SF-268 CNS = test system: SF-268 CNS
HCC-2998 colon = test system: HCC-2998 colon
SK-MEL-5 melanoma = test system: SK-MEL-5 melanoma
IGROV1 ovarian = test system: IGROV1 ovarian
HOP-62 NSCLC = test system: HOP-62 NSCLC
NCI-H23 lung = test system: NCI-H23 lung
U251 CNS = test system: U251 CNS
KM12 colon = test system: KM12 colon
MOLT-4 leukemia = test system: MOLT-4 leukemia
A549 NSCLC = test system: A549 NSCLC
HT29 colon = test system: HT29 colon
OVCAR-8 ovarian = test system: OVCAR-8 ovarian
SK-MEL-28 melanoma = test system: SK-MEL-28 melanoma
ACHN renal = test system: ACHN renal
RPMI-8226 leukemia = test system: RPMI-8226 leukemia
NCI-H226 lung = test system: NCI-H226 lung
SF-539 CNS = test system: SF-539 CNS
COLO 205 colon = test system: COLO 205 colon
HCT-116 colon = test system: HCT-116 colon
HL-60(TB) leukemia = test system: HL-60(TB) leukemia
UACC-62 melanoma = test system: UACC-62 melanoma
SNB-75 CNS = test system: SNB-75 CNS
HCT-15 colon = test system: HCT-15 colon
SK-MEL-2 melanoma = test system: SK-MEL-2 melanoma
M14 melanoma = test system: M14 melanoma
786-0 renal = test system: 786-0 renal
A498 renal = test system: A498 renal
RXF 393 renal = test system: RXF 393 renal
OVCAR-5 ovarian = test system: OVCAR-5 ovarian
DMS 114 small cell lung = test system: DMS 114 small cell lung
LOX IMVI melanoma = test system: LOX IMVI melanoma
DMS 273 small cell lung = test system: DMS 273 small cell lung
SNB-78 CNS = test system: SNB-78 CNS
OVCAR-4 ovarian = test system: OVCAR-4 ovarian
MALME-3M melanoma = test system: MALME-3M melanoma
EKVX NSCLC = test system: EKVX NSCLC
SN12C renal = test system: SN12C renal
CAKI-1 renal = test system: CAKI-1 renal
KM20L2 colon = test system: KM20L2 colon

Nc1c(C(=O)N/N=C/c2ccccc2)sc(=S)n1-c1ccccc1
> 100 µM: TGI (SNB-19 CNS) | TGI (HOP-92 NSCLC) | TGI (TK-10 renal) | TGI (SF-295 CNS) | TGI (CCRF-CEM leukemia) | TGI (UO-31 renal) | TGI (NCI-H522 lung) | TGI (UACC-257 melanoma) | TGI (SR leukemia) | TGI (SK-OV-3 ovarian) | TGI (HOP-18 NSCLC) | TGI (NCI-H460 lung) | TGI (SW-620 colon) | TGI (LXFL 529 NSCLC) | TGI (M19-MEL melanoma) | TGI (DLD-1 colon) | TGI (K-562 leukemia) | TGI (OVCAR-3 ovarian) | TGI (SF-268 CNS) | TGI (HCC-2998 colon) | TGI (SK-MEL-5 melanoma) | TGI (IGROV1 ovarian) | TGI (HOP-62 NSCLC) | TGI (NCI-H23 lung) | TGI (U251 CNS) | TGI (KM12 colon) | TGI (MOLT-4 leukemia) | TGI (A549 NSCLC) | TGI (HT29 colon) | TGI (OVCAR-8 ovarian) | TGI (SK-MEL-28 melanoma) | TGI (ACHN renal) | TGI (RPMI-8226 leukemia) | TGI (NCI-H226 lung) | TGI (SF-539 CNS) | TGI (COLO 205 colon) | TGI (HCT-116 colon) | TGI (HL-60(TB) leukemia) | TGI (UACC-62 melanoma) | TGI (SNB-75 CNS)

O=[N+]([O-])c1ccc2occ3c2c1CCC3
> 100 µM: TGI (SNB-19 CNS) | TGI (HOP-92 NSCLC) | TGI (TK-10 renal) | TGI (SF-295 CNS) | TGI (CCRF-CEM leukemia) | TGI (UO-31 renal) | TGI (NCI-H522 lung) | TGI (UACC-257 melanoma) | TGI (SR leukemia) | TGI (SK-OV-3 ovarian) | TGI (HCT-15 colon) | TGI (SK-MEL-2 melanoma) | TGI (M14 melanoma) | TGI (NCI-H460 lung) | TGI (SW-620 colon) | TGI (LXFL 529 NSCLC) | TGI (M19-MEL melanoma) | TGI (DLD-1 colon) | TGI (786-0 renal) | TGI (K-562 leukemia) | TGI (OVCAR-3 ovarian) | TGI (SF-268 CNS) | TGI (HCC-2998 colon) | TGI (SK-MEL-5 melanoma) | TGI (IGROV1 ovarian) | TGI (HOP-62 NSCLC) | TGI (A498 renal) | TGI (RXF 393 renal) | TGI (NCI-H23 lung) | TGI (U251 CNS) | TGI (OVCAR-5 ovarian) | TGI (DMS 114 small cell lung) | TGI (KM12 colon) | TGI (MOLT-4 leukemia) | TGI (A549 NSCLC) | TGI (HT29 colon) | TGI (OVCAR-8 ovarian) | TGI (LOX IMVI melanoma) | TGI (DMS 273 small cell lung) | TGI (SNB-78 CNS) | TGI (SK-MEL-28 melanoma) | TGI (OVCAR-4 ovarian) | TGI (MALME-3M melanoma) | TGI (ACHN renal) | TGI (EKVX NSCLC) | TGI (RPMI-8226 leukemia) | TGI (NCI-H226 lung) | TGI (SF-539 CNS) | TGI (COLO 205 colon) | TGI (HCT-116 colon) | TGI (HL-60(TB) leukemia) | TGI (UACC-62 melanoma) | TGI (SNB-75 CNS) | TGI (SN12C renal)

CCOC(=O)N1CCC(N[C@@H]2c3cc4c(cc3C(c3cc(OC)c(O)c(OC)c3)C3C(=O)OC[C@@H]32)OCO4)CC1 (some centres undefined)
30.8 µM and > 25 µM: TGI (SF-268 CNS)
3.21 µM and > 25 µM: TGI (SR leukemia)
2.62 µM and 2.69 µM: TGI (NCI-H23 lung)
15.1 µM and 13.1 µM: TGI (COLO 205 colon)
6.03 µM and 9.02 µM: TGI (DMS 273 small cell lung)
11.6 µM and 10.3 µM: TGI (OVCAR-8 ovarian)
9.2 µM and 7.56 µM: TGI (KM12 colon)
6.51 µM and 8.32 µM: TGI (U251 CNS)
1.63 µM and 1.86 µM: TGI (ACHN renal)
7.1 µM and 6.95 µM: TGI (SNB-19 CNS)
4.6 µM and 4.45 µM: TGI (SK-OV-3 ovarian)
2.94 µM and 4.8 µM: TGI (786-0 renal)
14.5 µM and 15.6 µM: TGI (KM20L2 colon)
21.4 µM and > 25 µM: TGI (LXFL 529 NSCLC)
6.31 µM and 8.14 µM: TGI (M14 melanoma)
13.6 µM and 9.21 µM: TGI (IGROV1 ovarian)
11.9 µM and 9.5 µM: TGI (TK-10 renal)
5.71 µM and 5.32 µM: TGI (SK-MEL-5 melanoma)
22.3 µM and 11 µM: TGI (HCT-116 colon)
12.8 µM and 10.2 µM: TGI (M19-MEL melanoma)
inactive: GI50 (TK-10 renal) 2.09 µM and 4.27 µM | GI50 (NCI-H522 lung) 1.41 µM and 3.08 µM | GI50 (HCC-2998 colon) 1.53 µM and 3.47 µM | GI50 (OVCAR-5 ovarian) 3.3 µM and 7.49 µM | GI50 (DMS 114 small cell lung) 1.9 µM and 0.747 µM | GI50 (RPMI-8226 leukemia) 1.46 µM and 4.12 µM | GI50 (KM20L2 colon) 2.16 µM and 4.5 µM
2.35 µM and 2.26 µM: TGI (CAKI-1 renal)
0.18 µM and 1.55 µM: GI50 (DMS 273 small cell lung)
22.4 µM and > 25 µM: TGI (K-562 leukemia)
18.9 µM and > 25 µM: TGI (CCRF-CEM leukemia)
27.1 µM and 16.4 µM: TGI (SK-MEL-28 melanoma)
5.78 µM and 4.71 µM: TGI (SF-539 CNS)
30.6 µM and 14.3 µM: TGI (DLD-1 colon)
7.97 µM and 12.4 µM: TGI (LOX IMVI melanoma)
14 µM and 17.4 µM: TGI (OVCAR-5 ovarian)
15.2 µM and 24.8 µM: TGI (SNB-75 CNS)
2.53 µM and 2.42 µM: TGI (SF-295 CNS)
50 µM and > 25 µM: TGI (SNB-78 CNS)
3.21 µM and 4.14 µM: TGI (UO-31 renal)
6.82 µM and 7.22 µM: TGI (HCC-2998 colon)
4.86 µM and 7.1 µM: TGI (EKVX NSCLC)
0.221 µM and 0.468 µM: GI50 (HL-60(TB) leukemia)
2.93 µM and 1.34 µM: TGI (SN12C renal)
17.5 µM and 11.6 µM: TGI (OVCAR-3 ovarian)
2.63 µM and 2.65 µM: TGI (HOP-62 NSCLC)
0.887 µM and 2.88 µM: TGI (NCI-H460 lung)
14.9 µM and 11.3 µM: TGI (SK-MEL-2 melanoma)
1.89 µM and 2.08 µM: TGI (A498 renal)
1.21 µM and 0.366 µM: GI50 (SN12C renal)
18.7 µM and > 25 µM: TGI (RPMI-8226 leukemia)
2.87 µM and 5.37 µM: TGI (UACC-62 melanoma)
3.5 µM and 3.67 µM: TGI (HOP-92 NSCLC)
9.79 µM and 9.69 µM: TGI (MALME-3M melanoma)
7.72 µM and 7.21 µM: TGI (NCI-H522 lung)
15.5 µM and 10.7 µM: TGI (HT29 colon)
36.3 µM and > 25 µM: TGI (UACC-257 melanoma)
13.7 µM and 7.55 µM: TGI (SW-620 colon)
12.4 µM and 4.81 µM: TGI (DMS 114 small cell lung)
2 µM and 5.46 µM: TGI (HL-60(TB) leukemia)
1.44 µM and 5.01 µM: TGI (A549 NSCLC)
2.97 µM and 4.43 µM: TGI (HCT-15 colon)

O=C1OCC/C1=N/O
> 100 µM: TGI (HOP-92 NSCLC) | TGI (TK-10 renal) | TGI (SF-295 CNS) | TGI (CCRF-CEM leukemia) | TGI (UO-31 renal) | TGI (NCI-H522 lung) | TGI (UACC-257 melanoma) | TGI (SR leukemia) | TGI (SK-OV-3 ovarian) | TGI (HCT-15 colon) | TGI (SK-MEL-2 melanoma) | TGI (HOP-18 NSCLC) | TGI (M14 melanoma) | TGI (NCI-H460 lung) | TGI (SW-620 colon) | TGI (LXFL 529 NSCLC) | TGI (M19-MEL melanoma) | TGI (DLD-1 colon) | TGI (786-0 renal) | TGI (K-562 leukemia) | TGI (OVCAR-3 ovarian) | TGI (SF-268 CNS) | TGI (HCC-2998 colon) | TGI (SK-MEL-5 melanoma) | TGI (IGROV1 ovarian) | TGI (A498 renal) | TGI (RXF 393 renal) | TGI (NCI-H23 lung) | TGI (U251 CNS) | TGI (OVCAR-5 ovarian) | TGI (DMS 114 small cell lung) | TGI (KM12 colon) | TGI (MOLT-4 leukemia) | TGI (A549 NSCLC) | TGI (HT29 colon) | TGI (OVCAR-8 ovarian) | TGI (DMS 273 small cell lung) | TGI (SNB-78 CNS) | TGI (SK-MEL-28 melanoma) | TGI (OVCAR-4 ovarian) | TGI (MALME-3M melanoma) | TGI (ACHN renal) | TGI (EKVX NSCLC) | TGI (RPMI-8226 leukemia) | TGI (NCI-H226 lung) | TGI (SF-539 CNS) | TGI (COLO 205 colon) | TGI (HCT-116 colon) | TGI (HL-60(TB) leukemia) | TGI (KM20L2 colon) | TGI (UACC-62 melanoma) | TGI (SNB-75 CNS) | TGI (SN12C renal)
